Measurements: ChEMBL document CHEMBL4610081, “Anti-inflammatory Metabolites from Chaetomium nigricolor” (J Nat Prod, 2020)
Calls of active or inactive are those of the source. The rule behind the calls is not given here.

What was measured:
RAW264.7 [1] = assay: Trans-suppression of NFkappaB in mouse RAW264.7 cells assessed as LPS-induced cytosol-p50 level at 5 uM preincubated for 3 hrs followed by LPS-stimulation and measured after 1 hr by Western blot analysis (reference value: 0.28); type: cell-based
RAW264.7 [2] = assay: Inhibition of LPS-induced ERK phosphorylation in mouse RAW264.7 cell at 5 uM preincubated for 3 hrs followed by LPS-stimulation and measured after 1 hr by Western blot analysis (reference value: 6.92); type: cell-based
RAW264.7 [3] = assay: Inhibition of LPS-induced ERK phosphorylation in mouse RAW264.7 cell at 2.5 uM preincubated for 3 hrs followed by LPS-stimulation and measured after 1 hr by Western blot analysis (reference value: 6.92); type: cell-based
RAW264.7 [4] = assay: Inhibition of LPS-induced JNK protein expression in mouse RAW264.7 cell at 10 uM preincubated for 3 hrs followed by LPS-stimulation and measured after 1 hr by Western blot analysis (reference value: 1.21); type: functional
RAW264.7 [5] = assay: Trans-suppression of NFkappaB in mouse RAW264.7 cells assessed as LPS-induced cytosol-p65 level at 2.5 uM preincubated for 3 hrs followed by LPS-stimulation and measured after 1 hr by Western blot analysis (reference value: 0.09); type: cell-based
[6] = molecular target: MAP kinase p38 (Mus musculus) (UniProt P47811+O08911+Q9WUI1+Q9Z1B7); assay: Inhibition of LPS-induced p38 MAPK phosphorylation in mouse RAW264.7 cell at 5 uM preincubated for 3 hrs followed by LPS-stimulation and measured after 1 hr by Western blot analysis (reference value: 5.59); type: cell-based
RAW264.7 [7] = assay: Inhibition of LPS-induced ERK protein expression in mouse RAW264.7 cell at 5 uM preincubated for 3 hrs followed by LPS-stimulation and measured after 1 hr by Western blot analysis (reference value: 1.13); type: functional
RAW264.7 [8] = assay: Trans-suppression of NFkappaB in mouse RAW264.7 cells assessed as LPS-induced cytosol-p50 level at 10 uM preincubated for 3 hrs followed by LPS-stimulation and measured after 1 hr by Western blot analysis (reference value: 0.28); type: cell-based
RAW264.7 [9] = assay: Inhibition of LPS-induced JNK phosphorylation in mouse RAW264.7 cell preincubated for 3 hrs followed by LPS-stimulation and measured after 1 hr by Western blot analysis; type: cell-based
RAW264.7 [10] = assay: Trans-suppression of NFkappaB in mouse RAW264.7 cells assessed as LPS-induced IKB-apha degradation at 5 uM preincubated for 3 hrs followed by LPS-stimulation and measured after 1 hr by Western blot analysis (reference value: 0.29); type: cell-based
RAW264.7 [11] = assay: Inhibition of LPS-induced ERK protein expression in mouse RAW264.7 cell at 2.5 uM preincubated for 3 hrs followed by LPS-stimulation and measured after 1 hr by Western blot analysis (reference value: 1.13); type: functional
RAW264.7 [12] = assay: Trans-suppression of NFkappaB in mouse RAW264.7 cells assessed as reduction in LPS-induced DNA binding at 2.5 to 10 uM preincubated for 3 hrs followed by LPS-stimulation and measured after 1 hr by TransAM assay; type: cell-based
RAW264.7 [13] = assay: Inhibition of LPS-induced p38 MAPK protein expression in mouse RAW264.7 cell at 5 uM preincubated for 3 hrs followed by LPS-stimulation and measured after 1 hr by Western blot analysis (reference value: 1.1); type: functional
RAW264.7 [14] = assay: Cytotoxicity against mouse RAW264.7 cells assessed as reduction cell viability at 20 uM by MTT assay; type: cell-based; details: raw264.7, 20 µM
RAW264.7 [15] = assay: Trans-suppression of NFkappaB in mouse RAW264.7 cells assessed as LPS-induced IKB-apha phosphorylation at 2.5 uM preincubated for 3 hrs followed by LPS-stimulation and measured after 1 hr by Western blot analysis (reference value: 6.04); type: cell-based
RAW264.7 [16] = assay: Inhibition of LPS-induced JNK protein expression in mouse RAW264.7 cell at 2.5 uM preincubated for 3 hrs followed by LPS-stimulation and measured after 1 hr by Western blot analysis (reference value: 1.21); type: functional
RAW264.7 [17] = assay: Antiinflammatory activity against mouse RAW264.7 cells assessed as reduction in LPS-induced IL6 mRNA expression preincubated for 3 hrs followed by LPS-stimulation and measured after 12 hrs by RT-PCR analysis; type: functional, cell-based
RAW264.7 [18] = assay: Trans-suppression of NFkappaB in mouse RAW264.7 cells assessed as LPS-induced cytosol-p65 level at 10 uM preincubated for 3 hrs followed by LPS-stimulation and measured after 1 hr by Western blot analysis (reference value: 0.09); type: cell-based
RAW264.7 [19] = assay: Antiinflammatory activity against mouse RAW264.7 cells assessed as reduction in LPS-induced TNF-alpha mRNA expression preincubated for 3 hrs followed by LPS-stimulation and measured after 12 hrs by RT-PCR analysis; type: functional, cell-based
RAW264.7 [20] = assay: Antiinflammatory activity against mouse RAW264.7 cells assessed as reduction in LPS-induced IL-12 mRNA expression preincubated for 3 hrs followed by LPS-stimulation and measured after 12 hrs by RT-PCR analysis; type: functional, cell-based
RAW264.7 [21] = assay: Antiinflammatory activity against mouse RAW264.7 cells assessed as LPS-induced COX-2 mRNA expression at 2.5 uM preincubated for 3 hrs followed by LPS-stimulation and measured after 24 hrs by RT-PCR analysis (reference value: 14.39); type: functional
RAW264.7 [22] = assay: Antiinflammatory activity against mouse RAW264.7 cells assessed as LPS-induced INOS mRNA expression at 5 uM preincubated for 3 hrs followed by LPS-stimulation and measured after 24 hrs by RT-PCR analysis (reference value: 8.2); type: functional
RAW264.7 [23] = assay: Antiinflammatory activity against mouse RAW264.7 cells assessed as inhibition of LPS-induced NO production preincubated for 3 hrs followed by LPS-stimulation and measured after 24 hrs by Griess reagent based assay; type: functional, cell-based
RAW264.7 [24] = assay: Trans-suppression of NFkappaB in mouse RAW264.7 cells assessed as LPS-induced nuclear-p65 level at 2.5 uM preincubated for 3 hrs followed by LPS-stimulation and measured after 1 hr by Western blot analysis (reference value: 3.3); type: cell-based
RAW264.7 [25] = assay: Antiinflammatory activity against mouse RAW264.7 cells assessed as LPS-induced COX-2 mRNA expression at 10 uM preincubated for 3 hrs followed by LPS-stimulation and measured after 24 hrs by RT-PCR analysis (reference value: 14.39); type: functional

Work on `COc1cc(OC)c2c(O)c3c(=O)cc(C)oc3c(-c3c(O)cc4cc(O)c5c(=O)cc(C)oc5c4c3OC)c2c1` (atropisomer aS) [ASPERPYRONE A] yielded a fold change (FC) (RAW264.7 [1]) of 0.87, a fold change (FC) (RAW264.7 [2]) of 7.31 and a fold change (FC) (RAW264.7 [3]) of 7.21. The “fold change (FC)” value (RAW264.7 [4]) was 1.19, the fold change (FC) (RAW264.7 [5]) was 0.42 and the fold change (FC) [6] was 5.63. For the same compound, the “fold change (FC)” value (RAW264.7 [7]) was 1.09, the fold change (FC) (RAW264.7 [8]) was 1.12 and the inhibition (RAW264.7 [9]) was “Dose-dependent effect”. The fold change (FC) (RAW264.7 [10]) was 0.68, the “fold change (FC)” value (RAW264.7 [11]) was 1.08 and the Activity (RAW264.7 [12]) was “Active”. The “fold change (FC)” value (RAW264.7 [13]) was 0.98, the Activity (RAW264.7 [14]) was “Non-Toxic” and the fold change (FC) (RAW264.7 [15]) was 2.93. For the same compound, the “fold change (FC)” value (RAW264.7 [16]) was 1.12, the Activity (RAW264.7 [17]) was “Dose-dependent effect” and the fold change (FC) (RAW264.7 [18]) was 1.04. The Activity (RAW264.7 [19]) was “Dose-dependent effect”, the Activity (RAW264.7 [20]) was “Dose-dependent effect” and the “fold change (FC)” value (RAW264.7 [21]) was 12.92. For the same compound, the “fold change (FC)” value (RAW264.7 [22]) was 2.62, the Activity (RAW264.7 [23]) was “Dose-dependent effect” and the IC50 (RAW264.7 [23]) was 8.6 µM. For the same compound, the fold change (FC) (RAW264.7 [24]) was 3.28 and the “fold change (FC)” value (RAW264.7 [25]) was 3.69.
